Measured values published in PMC10638397, “Engineering sulfonate group donor regeneration systems to boost biosynthesis of sulfated compounds” (Nature Communications, 2023).

Key:
Type in all cases: biochemical
PPK2^s.e = target: T1, PPK2^s.e (Staphylococcus epidermidis, UniProt Q5HL47); test: polyphosphate kinase assay, HPLC; conditions: polyP6, Mg2+, pH 7.5, 35 °C
T1 construct: gene SERP2140
T1 sequence (Q5HL47 1-474): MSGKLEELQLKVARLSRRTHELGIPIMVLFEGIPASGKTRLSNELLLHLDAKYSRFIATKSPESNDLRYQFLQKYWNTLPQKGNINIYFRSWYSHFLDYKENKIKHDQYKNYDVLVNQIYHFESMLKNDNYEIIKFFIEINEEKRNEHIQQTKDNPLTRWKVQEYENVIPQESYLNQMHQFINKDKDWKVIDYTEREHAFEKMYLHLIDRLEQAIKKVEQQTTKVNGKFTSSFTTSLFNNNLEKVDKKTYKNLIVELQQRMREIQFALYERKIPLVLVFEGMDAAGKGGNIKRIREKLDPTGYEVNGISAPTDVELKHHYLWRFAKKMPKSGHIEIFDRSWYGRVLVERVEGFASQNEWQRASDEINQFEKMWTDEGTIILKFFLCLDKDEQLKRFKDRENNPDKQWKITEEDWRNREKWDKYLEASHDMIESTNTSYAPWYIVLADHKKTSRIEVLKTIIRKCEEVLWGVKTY

PPK2A^p.a = target: T2, PPK2A^p.a (Pseudomonas aeruginosa, UniProt Q9I6Z1); test: polyphosphate kinase assay, HPLC; conditions: polyP6, Mg2+, pH 7.5, 35 °C
T2 construct: gene ppk2
T2 sequence (Q9I6Z1 2-357): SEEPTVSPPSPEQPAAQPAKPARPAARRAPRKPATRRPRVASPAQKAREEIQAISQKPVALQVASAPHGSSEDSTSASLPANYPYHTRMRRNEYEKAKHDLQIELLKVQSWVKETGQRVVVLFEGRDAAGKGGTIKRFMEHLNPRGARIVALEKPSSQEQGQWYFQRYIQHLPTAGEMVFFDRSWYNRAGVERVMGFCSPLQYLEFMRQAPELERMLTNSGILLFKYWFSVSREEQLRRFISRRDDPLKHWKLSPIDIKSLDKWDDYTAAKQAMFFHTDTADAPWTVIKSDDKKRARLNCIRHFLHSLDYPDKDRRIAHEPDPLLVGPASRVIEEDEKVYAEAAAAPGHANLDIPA

PPK2^d.r = target: T3, PPK2^d.r (Meiothermus ruber, UniProt M9XB82); test: polyphosphate kinase assay, HPLC; conditions: polyP6, Mg2+, pH 7.5, 35 °C
T3 construct: gene K649_10090
T3 sequence (M9XB82 1-267): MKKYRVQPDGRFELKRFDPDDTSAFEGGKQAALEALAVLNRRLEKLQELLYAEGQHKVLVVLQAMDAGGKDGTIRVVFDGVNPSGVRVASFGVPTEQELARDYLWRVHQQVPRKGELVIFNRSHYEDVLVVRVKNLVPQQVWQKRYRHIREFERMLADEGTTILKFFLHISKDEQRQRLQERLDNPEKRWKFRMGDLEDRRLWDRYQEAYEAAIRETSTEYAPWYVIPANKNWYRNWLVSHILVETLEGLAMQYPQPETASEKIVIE

PPK2^r.p = target: T4, PPK2^r.p (Ruegeria pomeroyi, UniProt Q5LX16); test: polyphosphate kinase assay, HPLC; conditions: polyP6, Mg2+, pH 7.5, 35 °C
T4 construct: gene SPO0224
T4 sequence (Q5LX16 1-305): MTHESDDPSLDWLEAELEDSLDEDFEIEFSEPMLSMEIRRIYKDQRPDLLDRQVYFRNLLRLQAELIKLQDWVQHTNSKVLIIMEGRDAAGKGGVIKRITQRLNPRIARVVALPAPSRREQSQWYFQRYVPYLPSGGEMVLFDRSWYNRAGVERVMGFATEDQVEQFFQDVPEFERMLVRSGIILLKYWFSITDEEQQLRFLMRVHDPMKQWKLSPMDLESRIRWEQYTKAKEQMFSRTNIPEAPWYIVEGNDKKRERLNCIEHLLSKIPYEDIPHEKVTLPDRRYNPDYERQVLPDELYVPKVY

PPK2B^p.a = target: T5, PPK2B^p.a (Pseudomonas aeruginosa, UniProt Q9I154); test: polyphosphate kinase assay, HPLC; conditions: polyP6, Mg2+, pH 7.5, 35 °C
T5 construct: gene PA2428
T5 sequence (Q9I154 1-304): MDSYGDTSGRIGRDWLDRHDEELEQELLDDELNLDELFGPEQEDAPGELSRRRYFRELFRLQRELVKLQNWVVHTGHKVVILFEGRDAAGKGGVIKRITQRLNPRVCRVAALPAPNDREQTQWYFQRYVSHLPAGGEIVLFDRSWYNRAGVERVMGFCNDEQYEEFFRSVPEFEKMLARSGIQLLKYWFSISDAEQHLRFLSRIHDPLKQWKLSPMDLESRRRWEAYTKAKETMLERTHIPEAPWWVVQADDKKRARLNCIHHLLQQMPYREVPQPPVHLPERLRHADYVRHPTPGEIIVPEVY

PPK2C^p.a = target: T6, PPK2C^p.a (Pseudomonas aeruginosa, UniProt Q9HYF1); test: polyphosphate kinase assay, HPLC; conditions: polyP6, Mg2+, pH 7.5, 35 °C
T6 construct: gene PA3455
T6 sequence (Q9HYF1 1-496): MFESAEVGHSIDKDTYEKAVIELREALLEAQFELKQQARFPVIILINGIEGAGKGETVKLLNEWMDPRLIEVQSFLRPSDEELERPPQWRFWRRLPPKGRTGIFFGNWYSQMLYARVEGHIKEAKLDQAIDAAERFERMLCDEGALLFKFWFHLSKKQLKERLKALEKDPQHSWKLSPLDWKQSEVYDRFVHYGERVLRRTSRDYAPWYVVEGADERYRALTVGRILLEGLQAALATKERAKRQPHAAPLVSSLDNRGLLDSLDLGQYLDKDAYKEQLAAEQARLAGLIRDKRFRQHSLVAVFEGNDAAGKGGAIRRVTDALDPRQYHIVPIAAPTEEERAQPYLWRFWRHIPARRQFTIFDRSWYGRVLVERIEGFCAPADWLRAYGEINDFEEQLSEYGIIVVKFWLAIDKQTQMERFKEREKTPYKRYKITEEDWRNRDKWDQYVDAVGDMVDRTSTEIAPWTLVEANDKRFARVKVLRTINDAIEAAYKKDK

[1] = tested on: T7, chondroitin 4-O-sulfotransferase (C4ST); test: sulfotransferase kinetics, HPLC-MS; conditions: Mg2+, pH 7.5, 35 °C (general assay); acceptor not given
T7 construct: gene Chst11; recombinant
Description: sulfotransferase kinetics, HPLC-MS on chondroitin 4-O-sulfotransferase (C4ST)

| Compound | polyphosphate kinase assay, HPLC (PPK2^s.e) | polyphosphate kinase assay, HPLC (PPK2A^p.a) | polyphosphate kinase assay, HPLC (PPK2^d.r) | polyphosphate kinase assay, HPLC (PPK2^r.p) | polyphosphate kinase assay, HPLC (PPK2B^p.a) | polyphosphate kinase assay, HPLC (PPK2C^p.a) | Km [1] |
| --- | --- | --- | --- | --- | --- | --- | --- |
| Nc1ncnc2c1ncn2[C@@H]1O[C@H](COP(=O)(O)OP(=O)(O)O)[C@@H](O)[C@H]1O [ADP] | all the other polyphosphate kinases exhibited both AMP and ADP phosphorylase activities |  |  |  |  |  |  |
| Nc1ncnc2c1ncn2[C@@H]1O[C@H](COP(=O)(O)O)[C@@H](O)[C@H]1O [AMP] | PPK2^s.e (from S. epidermidis) showed the highest enzymatic activity and preferentially utilized AMP | all the other polyphosphate kinases exhibited both AMP and ADP phosphorylase activities | all the other polyphosphate kinases exhibited both AMP and ADP phosphorylase activities | all the other polyphosphate kinases exhibited both AMP and ADP phosphorylase activities | all the other polyphosphate kinases exhibited both AMP and ADP phosphorylase activities | all the other polyphosphate kinases exhibited both AMP and ADP phosphorylase activities |  |
| Nc1ncnc2c1ncn2[C@@H]1O[C@H](COP(=O)(O)OS(=O)(=O)O)[C@@H](OP(=O)(O)O)[C@H]1O [PAPS] |  |  |  |  |  |  | 1270 ± 140 µM |
